The values that follow come from patent US20060040870A1, “Enhancement of apoptosis by caspase-9 inhibitors” (priority 2004, published 2006).

One assay deals with CD19+ B-cell precursors. The assay can be described thus: Annexin V staining of sorted cord blood-derived CD19+ B-cell precursors removed from MS-5 stroma. It is filed as cell-based, human. To be noted: cultured 18 hours, DMSO control 46.5 ± 1.4, Time 0 1.5. How it is done: Normal B-lineage cells. CD19+ B-lineage cells were derived from CD34+ human cord blood stem cells plated on the murine stromal cell line MS-5 (Itoh Exp Hematol. 1989;17:145-153). MS-5 stromal cells were kindly provided by Dr. Paul Kincade (University of Oklahoma Medical Research Foundation), following permission from Professor K. John Mori (Niigata University, Japan). FACS-purified CD34+/CD38+/lineage—cord blood hematopoietic stem cells were plated onto confluent, non-irradiated MS-5 stromal cells in 96-well flat-bottom plates (200 cells/well) containing Minimal Essential Medium supplemented with 10% FBS. Stem cell factor and G-CSF were added at 10 ng/ml (twice weekly) to enhance the emergence of CD19+ B-lineage cells (Nishihara Eur J Immunol. 1998;28:855-864; Ohkawara Leukemia. 1998;12:764-771). […] Wells were then pooled, stained with PE-conjugated anti-CD 19 + propidium iodide (PI), and sorted on a FACSVantage (BD Immunocytometry Systems, San Jose, Calif.). Cord blood CD34+/CD38+/lineage—cells were provided by Valerie McCullar and Dr. Jeff Miller of the University of Minnesota Cancer Center in accordance with the University of Minnesota Institutional Review Board on Human Subjects.
Flow cytometry. Quantitation of apoptotic events was conducted using a FACS Calibur (BD Immunocytometry Systems). […]

Another assay concerns BLIN-3 cells. The assay can be described thus: Apoptosis by Annexin V staining and flow cytometry, BLIN-3. The format is cell-based, human. The procedure:
(§1) Flow cytometry. Quantitation of apoptotic events was conducted using a FACS Calibur (BD Immunocytometry Systems). All analyses were conducted on cells with lymphoid light scatter characteristics (i.e., low to medium forward scatter and low 90° side scatter).
(§2) iii. Annexin V. FITC-labeled Annexin V (BD Pharmingen, San Diego, Calif.) was used to detect external phosphatidylserine residues appearing on the external surface of early apoptotic cells (Koopman Blood. 1994;84:1415-1420). Cells were stained according to the manufacturers recommendations.
(§3) General experimental strategy. BLIN cell lines were removed from fibroblast monolayers, washed once and resuspended to 7.5×10^5/ml in X-VIVO 10. Two hundred μL of resuspended cells were added to 96-well flat-bottom microtiter plates (ISC Bioexpress, Kaysville, Vt.), followed by 0.5-1.0 μL of caspase inhibitors in DMSO. An identical volume of DMSO alone was added to separate wells as a vehicle control. This final DMSO concentration of 0.25-0.5% vol/vol had no adverse affect on any of the BLIN cell lines. At the indicated times the entire content of individual wells was harvested and stained in the fluorescent protocols described above.
The inventors carried out experiments to test the influence of specific amino acid substitutions on the proapoptotic activity Z-LEHD-fmk. Cells were cultured for 24 hours with various μM concentrations of Z-LEDH-fmk or single amino acid substitution of the parent peptide. All values in the following Table 3 represent the percentage of total Annexin V+ cells (PI+ and PI−) minus the percentage present in culture with DMSO alone (BLIN-2=3%; BLIN-3+7%; BLIN4L=5%).

Another assay concerns BLIN-4E cells. The experiment in a line: Apoptosis by Annexin V staining and flow cytometry, BLIN-4E. It is filed as cell-based, human. To be noted: 50 μM, 18 hours. How it is done: (§4) FIG. 4 is a pair of graphs showing the effect of […] on various cell lines, as determined by Annexin V staining and flow cytometry. The cells included the B-cell precursor ALL cell lines […], and NALM-6, the RAMOS, RAJI, and DAUDI Burkitt lymphoma cell lines, the CCRF-CEM, JURKAT, and H9 T lymphoma cell lines, the K-562 erythroleukemia cell line, and resting or activated (i.e., CD3/CD28 cross-linked) normal human T cells. […] Flow cytometry. Quantitation of apoptotic events was conducted using a FACS Calibur (BD Immunocytometry Systems). All analyses were conducted on cells with lymphoid light scatter characteristics (i.e., low to medium forward scatter and low 90° side scatter). iii. Annexin V. […] Cells were stained according to the manufacturers recommendations.

For another assay, the system named is BLIN-2 cells. The assay can be described thus: Apoptosis by Annexin V staining and flow cytometry, BLIN-2. It is filed as cell-based, human. To be noted: BLIN-2, 50 μM, 18 hours. How it is done: as §1, §2, §3
The inventors carried out experiments to test the influence of specific amino acid substitutions on the proapoptotic activity Z-LEHD-fmk. […]

Assay [1] deals with JURKAT T lymphoma cell line. The experiment in a line: Apoptosis by Annexin V staining and flow cytometry, JURKAT. The format is cell-based. To be noted: 50 μM, 18 hours. How it is done:
as §4

The star is where a group is joined. Cbz = O=C(OCc1ccccc1)*; CH2F = FC*

“Z-LEHD-fmk (Cbz-LEHD-CH2F; SMILES CC(C)C[C@H](NC(=O)OCc1ccccc1)C(=O)N[C@@H](CCC(=O)O)C(=O)N[C@@H](Cc1c[nH]cn1)C(=O)N[C@@H](CC(=O)O)C(=O)CF) [C9i]”: in the assay on CD19+ B-cell precursors, the “percentage of total Annexin V+ cells (PI+ and PI−), mean ± SD” value is 56.0 ± 3.2 %. Further, the “sensitivity (fold-increase in Annexin V+ cells vs DMSO)” value was “sensitive” with BLIN-3 cells (BLIN-3, 50 μM, 18 hours); “sensitive” with BLIN-4E cells; “less sensitive than the others” in the assay with BLIN-2 cells; “sensitive” in assay [1]. Also, the “apoptosis (Annexin V and TMRE staining) versus DMSO vehicle” value in the assay on BLIN-3 cells (BLIN-3 removed from adherent fibroblasts, 50 μM, 2-hour time points up to 8 hours) is “pronounced enhancement of apoptosis”.
